Experimental findings from patent publication US6258790A, “Antisense modulation of integrin α4 expression” (Isis Pharmaceuticals, Inc., priority 1999, dated 2001) are described below.

Where “and” joins values, the source holds several entries; their conditions need not be identical. Identical values can stand only once.

One data set concerns murine integrin α4. Nature of the data set: Antisense inhibition of murine integrin α4 protein expression in IC-21 macrophage cells (flow cytometry, CD49d-PE). The note with it: for % Control (integrin α4 protein) / % Inhib (integrin α4 protein): Table 11. Type of data set: cell-based, mouse. As to the method:
Murine IC-21 macrophage cells (American Type Culture Collection, Manassas, Va.) were used for further study. Additional oligonucleotides were designed to target murine integrin α4. These are shown in Table 10; all 2' MOE nucleotides are shown in bold and remaining positions are 2' deoxy. All 2'-MOE cytosines in these compounds are 5' methylcytosines. IC-21 cells were seeded at 5×10^4 cell/well plates two days before assay. […] Wells were triplicates.
Cells (triplicates) were seeded at 2.5×10^4 cells/well in 24-well plates the day before treatment. Oligonucleotide concentrations were 0.2, 1, 5, 25 and 50 nM in 3 ug/ml LIPOFECTIN. Cells were harvested with 2 mM EDTA for 4 minutes, then 1 ml of 2% BSA, 0.2% azide was added per contents of each well.
IC-21 cells were treated with 0.3, 1, 3, 10 and 30 nM oligonucleotide with 3 ug/ml LIPOFECTIN for 4 hours. Cells were incubated for 24 hours, harvested with trypsin, stained with 2 ug/ml CD49d-PE and rat IgG2B as in previous examples.
These compounds were tested for ability to inhibit integrin α4 protein expression.
Background: Flow cytometry measures light scatter and fluorescence of single cells or particles in a stream.

The subject of data set [1] is murine integrin α4 mRNA. Nature of the data set: Antisense inhibition of murine integrin α4 mRNA expression in P388D (IL-1) macrophage cells (RNA gel, PCR-labeled probe). Type of data set: cell-based, mouse. The settings on record: Table 9, averages of duplicate samples.
For data set [2], the system named is murine integrin α4 mRNA. The description is as above. The data set is classed as cell-based, mouse. The settings on record: 100 nM; for % Control (murine integrin α4 mRNA) / % Inhib (murine integrin α4 mRNA): Table 8, P388D (IL-1) cells, 3 ug/ml lipofectin; for activity in the mRNA screen: Table 8 assay; for % Control / % Inhib.: Table 9, averages of duplicate samples. How it is done: Oligonucleotides were initially screened in murine P388D (IL-1) macrophage cells (American Type Culture Collection, Manassas Va.) for 4 hours at an oligonucleotide concentration of 100 nM in 3 ug/ml lipofectin.

The test system of a further data set is murine integrin α4 RNA. As to the kind of experiment: Dose response effect on integrin α4 RNA levels in IC-21 cells. The data set is classed as cell-based, mouse. The settings on record: for Percent inhib. (integrin α4 RNA) / Percent of control (integrin α4 RNA): Table 14, duplicate. As to the method:
another dose response experiment was done to determine the IC50 of ISIS 16433 for inhibition of integrin α4 RNA. IC-21 cells were tested in duplicate with ISIS 16433 at 6.25, 12.5, 25 or 50 nM with 3 ug/ml LIPOFECTIN.
RNA was purified with Qiagen Qiashredder/RNEASY™ Kit according to manufacturer's directions. Probes were random primed using a prime-a-Gene Kit (Promega, Madison, Wis.).

In data set [3] the test system is Mouse collagen-induced arthritis (CIA). As to the kind of experiment: Mouse collagen-induced arthritis (CIA) model for rheumatoid arthritis. The data set is classed as in vivo, mouse (DBA/1LacJ). The note with it: Table 22; positive control, 5 mg/kg daily IP. From the text: A model for human rheumatoid arthritis has been developed wherein mice are immunized with bovine type II collagen. Anderson et al., J. Immunol. 1991 147, 1189-1193, citing Trentham et al., J. Exp. Med 1977, 146, 857. Swelling and inflammation of the joints follows in approximately 3 weeks, with joint distortion and ankylosis typical of rheumatoid arthritis. This model has been used to study the effects of the antisense oligonucleotide 17044, targeted to mouse integrin α4, on arthritis in mice.
DBA/1LacJ mice were obtained from Jackson Laboratory, Bar Harbor, Me. Female mice aged 6 to 8 weeks were used and assigned to groups, ten mice per group. On day 0 mice were immunized at the base of the tail with 100 ug of bovine type II collagen which was emulsified in Complete Freund's Adjuvant (CFA). On day 7, a second booster dose of collagen was administered by the same route. On day 14 the mice were injected subcutaneously with 100 ug of lipopolysaccharide (LPS). Weights were recorded weekly. Mice were inspected daily for the onset of CIA, which is characterized by erythema and edema. Upon the onset of the disease, paw widths and rear ankle widths of affected and unaffected joints were measured three times a week using a constant tension caliper. In addition, limbs were clinically evaluated and graded 0-4, where 0=normal; 1=one digit swollen; 2=inflammation present in more than one digit; 3=joint distortion with or without inflammation; and 4=ankylosis, detected by joint manipulation. The progression of all measurements was recorded to day 50. At the end of the observation period for each mouse, all paws were removed and examined histologically.
The oligonucleotide, the positive control drug (cyclophosphamide, 5 mg/kg), and the vehicle were administered daily to each mouse intraperitoneally (IP) starting on day -3 and continuing for the duration of the study. Each animal received 10 mg/kg as a bolus daily dose.
In a preliminary study, a single 10 mg/kg daily dose of […] was administered from the time of disease induction to the conclusion of the study 50 days later. Arthritis incidence was reduced from 70 to 30% in the ISIS 17044-treated group.

Where [4] appears, read: IC-21 cells, 25 nM, triplicates.

As for “15607 (antisense GGCCACTGACCAGAGTTGCA; phosphorothioate DNA, further chemistry not given here) [compound 15607]”, in the data set with murine integrin α4 (setting [4]), the “% Control (integrin α4 protein)” value was 82% and the “% Inhib (integrin α4 protein)” value was found to be 18%. In the data set with murine integrin α4 mRNA [1] (12.5 nM), the “% Control” value was found to be 78% and the “% Inhib.” value came out at 22%. Further, in the data set on murine integrin α4 mRNA [1] (25 nM), the “% Control” value was 67% and the “% Inhib.” value is on record as 33%. Further, in the data set with murine integrin α4 mRNA [1] (50 nM), the “% Control” value was found to be 50% and the “% Inhib.” value turned out to be 50%. Further, in the data set on murine integrin α4 mRNA [2], the “% Control (murine integrin α4 mRNA)” value was found to be 26%, the “% Inhib (murine integrin α4 mRNA)” value is given as 74%, the “activity in the mRNA screen” value was “most active” and the “% Control” value worked out at 55%. Moreover, the “% Inhib.” value in the data set on murine integrin α4 mRNA [2] stood at 45%.

As to “16478 (GCCGACACCCGTTCGTTCGG; phosphorothioate DNA, further chemistry not given here) [compound 16478]”, the “% Control (integrin α4 protein)” value with murine integrin α4 (setting [4]) turned out to be 92%. Also, the “% of control” value with murine integrin α4 (Table 12, 5 nM, triplicates) is listed as 95%; with murine integrin α4 (Table 12, 25 nM, triplicates), 87%; in the data set with murine integrin α4 (Table 12, 50 nM, triplicates) it was 84%; in the data set on murine integrin α4 (Table 13, 0.3 nM, 24 hours) it was 137%; with murine integrin α4 (Table 13, 1 nM, 24 hours) it was 131%; with murine integrin α4 (Table 13, 3 nM, 24 hours), 127%. In addition, the “% of control” value is 130% with murine integrin α4 (Table 13, 10 nM, 24 hours) and 108% with murine integrin α4 (Table 13, 30 nM, 24 hours). Further, the “% Inhib.” value in the data set on murine integrin α4 (Table 12, 25 nM, triplicates) is reported as 13%; in the data set on murine integrin α4 (Table 12, 50 nM, triplicates) it was 16%. Further, the “Percent inhib. (integrin α4 RNA)” value is 25% in the data set with murine integrin α4 RNA (6.25 nM), 40% in the data set on murine integrin α4 RNA (12.5 nM), 76% in the data set on murine integrin α4 RNA (25 nM) and 74% in the data set with murine integrin α4 RNA (50 nM). Further, the “Percent of control (integrin α4 RNA)” value in the data set on murine integrin α4 RNA (6.25 nM) is on record as 75%; in the data set with murine integrin α4 RNA (12.5 nM), 60%; in the data set with murine integrin α4 RNA (25 nM), 24%; with murine integrin α4 RNA (50 nM), 26%.

Turning to “16433 (CCGCAGCCATGCGCTCTTGG; phosphorothioate, 2'-MOE/deoxy, further chemistry not given here) [compound 16433]”, the 50% inhibitory concentration (IC50) (in general, the point on the concentration scale where inhibition reaches its midpoint) was about 1 nM in the data set with murine integrin α4 (IC-21 cells) and about 10 nM with murine integrin α4 RNA (IC-21 cells, read-out: IC50 for integrin α4 RNA reduction). Also, the “inhibition of protein levels” value in the data set with murine integrin α4 (IC-21 cells, 30 nM) is listed as “inhibit protein levels to below basal levels”. Further, the “% Control (integrin α4 protein)” value in the data set on murine integrin α4 (setting [4]) turned out to be 23%. Besides, the “% Inhib (integrin α4 protein)” value in the data set on murine integrin α4 (IC-21 cells, 25 nM, triplicates, 0.025 µM) is 77% and > 50%. The “% Inhib.” value was found to be 15% in the data set on murine integrin α4 (Table 12, 0.2 nM, triplicates); 38% with murine integrin α4 (Table 12, 1 nM, triplicates); 63% in the data set with murine integrin α4 (Table 12, 5 nM, triplicates); 80% in the data set with murine integrin α4 (Table 12, 25 nM, triplicates); 70% in the data set with murine integrin α4 (Table 12, 50 nM, triplicates); 11% with murine integrin α4 (Table 13, 0.3 nM, 24 hours). The “% Inhib.” value is given as 32% with murine integrin α4 (Table 13, 1 nM, 24 hours); 75% with murine integrin α4 (Table 13, 3 nM, 24 hours); 97% in the data set on murine integrin α4 (Table 13, 10 nM, 24 hours); 36% in the data set on murine integrin α4 (Table 16, 3 nM); 98% in the data set on murine integrin α4 (Table 16, 10 nM). The “% of control” value stood at 85% with murine integrin α4 (Table 12, 0.2 nM, triplicates); 62% in the data set with murine integrin α4 (Table 12, 1 nM, triplicates); 37% in the data set on murine integrin α4 (Table 12, 5 nM, triplicates); 20% with murine integrin α4 (Table 12, 25 nM, triplicates); 30% in the data set on murine integrin α4 (Table 12, 50 nM, triplicates); 89% in the data set on murine integrin α4 (Table 13, 0.3 nM, 24 hours). Also, the “% of control” value with murine integrin α4 (Table 13, 1 nM, 24 hours) is on record as 68%; with murine integrin α4 (Table 13, 3 nM, 24 hours), 25%; with murine integrin α4 (Table 13, 30 nM, 24 hours) it was -14%. Further, the “% Control” value in the data set with murine integrin α4 (Table 16, 0.3 nM) turned out to be 146%; in the data set on murine integrin α4 (Table 16, 1 nM), 94%; in the data set on murine integrin α4 (Table 16, 3 nM), 64%; in the data set on murine integrin α4 (Table 16, 10 nM), 02%. The “Percent inhib. (integrin α4 RNA)” value is on record as 41% in the data set with murine integrin α4 RNA (6.25 nM), 44% in the data set on murine integrin α4 RNA (12.5 nM), 72% in the data set on murine integrin α4 RNA (25 nM) and 57% in the data set on murine integrin α4 RNA (50 nM). Besides, the “Percent of control (integrin α4 RNA)” value in the data set on murine integrin α4 RNA (6.25 nM) is 59%; in the data set with murine integrin α4 RNA (12.5 nM), 46%; in the data set with murine integrin α4 RNA (25 nM), 28%; in the data set with murine integrin α4 RNA (50 nM), 43%.

Turning to `O=P1(N(CCCl)CCCl)NCCCO1` (stereo not shown) [Cyclophosphamide, cyclophosphamide, reference compound], in data set [3], the “# Paws/Mouse (mean number of affected paws at termination)” value stood at 0 ± 0 and the “Severity (total clinical score/total number of mice in group)” value worked out at 0 ± 0.

In the case of “15608 (antisense CCGCAGCCATGCGCTCTTGG; phosphorothioate DNA, further chemistry not given here) [compound 15608]”, in the data set on murine integrin α4 (setting [4]), the “% Control (integrin α4 protein)” value stood at 63% and the “% Inhib (integrin α4 protein)” value is given as 37%. In the data set with murine integrin α4 mRNA [1] (12.5 nM), the “% Control” value is listed as 59% and the “% Inhib.” value came to 41%. In the data set on murine integrin α4 mRNA [1] (25 nM), the “% Control” value was found to be 29% and the “% Inhib.” value is 71%. Moreover, in the data set with murine integrin α4 mRNA [1] (50 nM), the “% Control” value is listed as 23% and the “% Inhib.” value amounted to 77%. In addition, in the data set on murine integrin α4 mRNA [2], the “% Control (murine integrin α4 mRNA)” value is reported as 16%, the “% Inhib (murine integrin α4 mRNA)” value was found to be 84%, the “activity in the mRNA screen” value is on record as “most active” and the “% Control” value worked out at 39%. In the data set on murine integrin α4 mRNA [2], the “% Inhib.” value is 61%.

“15609 (antisense CACCTCGCTTCCGCAGCCAT; phosphorothioate DNA, further chemistry not given here) [compound 15609]”: in the data set on murine integrin α4 (setting [4]), the “% Control (integrin α4 protein)” value is 57% and the “% Inhib (integrin α4 protein)” value is given as 43%. Besides, in the data set with murine integrin α4 mRNA [1] (12.5 nM), the “% Control” value stood at 54% and the “% Inhib.” value was determined as 46%. For the same compound, in the data set with murine integrin α4 mRNA [1] (25 nM), the “% Control” value came out at 24% and the “% Inhib.” value stood at 76%. For the same compound, in the data set on murine integrin α4 mRNA [1] (50 nM), the “% Control” value turned out to be 28% and the “% Inhib.” value turned out to be 72%. Also, in the data set with murine integrin α4 mRNA [2], the “% Control (murine integrin α4 mRNA)” value is 07%, the “% Inhib (murine integrin α4 mRNA)” value turned out to be 93%, the “activity in the mRNA screen” value is reported as “most active” and the “% Control” value was 57%. Moreover, the “% Inhib.” value in the data set with murine integrin α4 mRNA [2] stood at 43%.
